# Assay results reported in US20210275545A1, “METHOD OF TREATING CANCER PREFERABLY CHARACTERIZED BY EXPRESSION OF A FUSION PROTEIN COMPRISING A MEMBER OF THE E-TWENTY-SIX FAMILY BY ADMINISTERING AN AGENT THAT INHIBITS THE SYNTHESIS AND/OR ACTIVITY OF CORTISOL” (Yeda Research and Development Co. Ltd., priority 2018, published 2021).
# Assays:
# [1] = tested on: RD-ES tumors; assay: Immunoblotting of RD-ES tumor extracts; assay type: in vivo, SCID mice
# Description: FIGS. 13A-B: A GR antagonist and a cortisol-lowering drug induce markers of cell death in animal models of Ewing's sarcoma. (A) RD-ES tumors presented in FIG. 6A were extracted and analyzed using immunoblotting and the indicated antibodies. Note that tumors from three different mice per group were analyzed. (B) Whole extracts prepared from the tumors presented in FIG. 6D were analyzed using immunoblotting and the indicated antibodies. Note that tumors from three different mice per group were analyzed.
# ES animal model studies: All animal experiments were approved by the Weizmann Institute's Animal Care and Use Committee. RD-ES cells and A673 cells (2.5×10^6) were inoculated subcutaneously in the right legs of female SCID mice (6 weeks old). Tumor growth was monitored once every 3 days using a caliper. […] Mice were euthanized when tumor size reached 800-900 mm^3. For metastasis assays, luciferase-labeled TC-71 cells (10^6) were injected orthotopically into the tibia of female SCID mice. Once the primary tumor reached the allowed size limit, we excised the lungs and examined metastases using luciferase bioluminescence imaging.
# [2] = tested on: RD-ES xenograft; assay: RD-ES xenograft tumor growth and KI67 staining; assay type: in vivo, SCID mice; conditions: 1 mg/kg daily
# Source text: FIGS. 6A-E. A GR antagonist and a cortisol-lowering drug impede growth of human xenograft models of Ewing's sarcoma. (A) RD-ES cells (2×10^6) were implanted subcutaneously in the right flank of SCID mice. Once tumors reached an approximate size of 150 mm^3, animals were randomized into three groups (n=10). […] The means of tumor volumes (+SEM) are shown. […] (B) Shown are representative images of immunofluorescent staining for KI67 in paraffin-embedded sections of tumors from A, using an antibody against KI67. Scale bars, 100 μm. Also shown is the scatter plot depicting quantification of KI67 staining in randomly selected 4 fields of a representative tumor from each group. […] (C and D) A673 cells (2×10^6) were implanted in female SCID mice. Once tumors reached the size of 150 mm^3, animals were randomized into two groups (n=9). Each group was daily treated with either vehicle, or Metyrapone (25 mg/kg) and tumorigenic growth was monitored. Actual tumor volumes (±SEM) are presented. Also shown are tumors harvested from each group of animals; **p<0.001. […] Luminescence was quantified and presented in a bar graph.
# ES animal model studies: All animal experiments were approved by the Weizmann Institute's Animal Care and Use Committee. […] Tumor growth was monitored once every 3 days using a caliper. […]
# [3] = tested on: CHLA9 and RD-ES cells; assay: Matrigel invasion assay of ES cells; assay type: cell-based; conditions: DEX 1 μM, RU486 1 μM, D06 10 μM; 20 hours
# Description: (§1) (A) CHLA9 cells were seeded in 100-mm dishes. Once they reached sub-maximal density, cells were starved overnight for serum factors. […] Cells were then extracted and the lysates were processed for co-immunoprecipitation assays using an antibody against GR followed by immunobloting that used an antibody against EWS. The image shown is representative of 3 biological replicates. Signals were quantified and normalized (see numbers below each lane). EB, empty beads. […] (C-D) CHLA9 cells were seeded on the upper faces of either Transwell migration chambers or Matrigel-coated invasion chambers, and further incubated for 20 hours in full medium. Control siRNAs or siRNAs specific to either GR or EWS-FLI1 were added to cells 24 hours prior to seeding, and both cell migration and invasion were measured 20 hours later. […] Cells that reached the lower faces of the chambers were fixed and stained. Shown are representative images of stained cells. The bar plots show quantification, using ImageJ, of the area covered by cells. *, p≤0.05, **, p≤0.005. Bars, 500 μm. […] The bar plots show quantification, using ImageJ, of the area covered by cells. *, p≤0.05, **, p≤0.005. […]
# (§2) (A) RD-ES cells were seeded in 100-mm dishes. […] Cell migration/invasion was determined 20 hours later.
# [4] = tested on: CHLA9 and RD-ES cells; assay: Transwell migration assay of ES cells; assay type: cell-based; conditions: DEX 1 μM, RU486 1 μM, D06 10 μM; 20 hours
# Description: as §1, §2
# [5] = tested on: CHLA9, A673 and RD-ES cells; assay: MTT cell viability assay, three ES lines; assay type: cell-based; conditions: increasing concentrations, 24 hours
# Description: FIGS. 12A-F: Inhibition of GR activity decreases growth and survival of Ewing's sarcoma cells. […] (B) Increasing concentrations of D06, a non-steroidal antagonist of GR [54], were incubated with A673 cells as in A and the MTT assay was performed in triplicates. *, p<0.05. […] Note that the abundance of the endogenous form of FLI1 is much weaker than that of EWS-FLI1. […] MTT assays were performed after 48 hours of treatment. The assay was repeated twice in quadruplets. **, p<0.01, ***, p<0.001. (E) A673 cells were seeded in 100-mm dishes. […] Shown are results of an apoptosis assay performed using an annexinV/7-AAD kit (BioLegend, Inc.). Quantification of the fractions of early and late apoptotic cells is shown in bar plots. The experiment was repeated twice. (F) The indicated ES cells were sparsely seeded in 6-well plates. […] Ten days later, cells were fixed and stained with crystal violet to visualize emerging colonies. Photos are shown along with bar plots showing the quantification of colonies in 5 non-overlapping microscope fields. The experiment was repeated twice. *, p≤0.05; **, p≤0.001.
# According to recent reports, the EWS-FLI1 fusion promotes cell cycle progression and inhibits apoptosis. […] Next, siRNA specific to the FLI1 region of the fusion (FIG. 12C) were analyzed in A673 cells. […]
structure (smiles),measurement,setting,value
"CC#C[C@]1(O)CC[C@H]2[C@@H]3CCC4=CC(=O)CCC4=C3[C@@H](c3ccc(N(C)C)cc3)C[C@@]21C [RU486, Mifepristone]",AKT survival pathway in tumors,[1],inhibited
same,LC3B-I abundance in tumors,[1],increased abundance
same,activation of caspase 3 in tumors,[1],no clear activation
same,larger isoform of BIM in tumors,[1],up-regulation
same,p21 abundance in tumors,[1]; three mice per group,increased abundance
same,p27 abundance in tumors,[1]; three mice per group,increased abundance
same,tumor growth,[2],significantly slower tumor growth
same,KI67 staining of tumor sections (proliferation),[2]; relative to control group,slower proliferation rates
same,matrix invasion,[3],inhibited
same,cell migration,[4],inhibited
same,survival of ES cell lines (MTT),[5],dose-dependent reduction
